The values that follow are results of earlier work, collected in patent US11856951B2, “Method for managing resistance to insecticidal traits and chemicals using pheromones” (Provivi, Inc., priority 2015, dated 2024).

Data set [1] concerns mated female H. armigera. As to conditions: mated females.
In data set [2] the test system is mated H. armigera.
In data set [3] the test system is Female E. heros.
Data set [4] relates to virgin female H. zea.
Data set [5] concerns H. armigera males. As to conditions: wind tunnel assays.

Regarding `CCCCCCCCCCCCCCCCCC(=O)O` [C18:0], the electroantennogram response result in data set [1] is “strong electroantennogram responses”.

Take `O=Cc1ccccc1` [benzaldehyde]: the “attractiveness of an oviposition substrate” value in data set [2] is listed as “significantly increase the attractiveness”. As to `CCCCCCCCCCCCCC(=O)O` [C14:0], the electroantennogram response result in data set [1] is “strong electroantennogram responses”. For `CCCCCCC=O` [Heptanal], the “attractiveness of an oviposition substrate” value in data set [2] is listed as “significantly increase the attractiveness”. As to `CCCC(C)CCCC(C)CCCC(C)C(=O)OC` (centres unmarked) [TMTD, methyl 2,6,10-trimethyltridecanoate], the attraction to lures entry in data set [3] was “attracted”.

In the case of `CCCCCCCCCCCCCCCC(=O)O` [C16:0], the electroantennogram response result in data set [1] is on record as “strong electroantennogram responses”. Take `C=C` [ethylene]: the “correlation of concentration with calling behaviour” value in data set [4] was “positively correlated”. For `CCCC/C=C\CCCCCCCCCCO` [Z11-16:OH], in data set [5], the “effect on male upwind flight” value was “inhibits male upwind flight”.
